Measurements taken from patent US9822136B2, “Chemical inhibitors of sebocyte function” (priority 2016, dated 2017).
Entries after “also recorded” stand apart in the source; their conditions may differ.

Columns and labels:
[1] = target: T1, cloned hTRPM8 channel (Homo sapiens, UniProt Q7Z2W7); assay: TRPM8 activation, FLIPR calcium assay in CHO cells; format: cell-based; settings: for Relative Potency to I-menthol: TRPM8 EC50 relative to I-menthol
T1 construct: host or cells: CHO cells
Description: The in vitro effects of test articles were first evaluated on cloned hTRPM8 channel. […] The test cells were Chinese Hamster Ovary (CHO) cells stably transfected with human TRPM8 cDNAs. […] Substances were evaluated at 8 concentrations (0.03 to 300 μM) with n=4 replicates per determination. For Fluorescence Imaging Plate Reader ([…]″) assay, cells were plated in 384-well black wall, flat clear-bottom microtiter plates (Type: BD Biocoat Poly-D-Lysine Multiwell Cell Culture Plate) at approximately 30,000 cells per well. Cells were incubated at 37° C. overnight to reach a near confluent monolayer appropriate for use in a fluorescence assay. The test procedure was to remove the growth media and to add 40 μL of HBPS containing Fluo-8 for 30 minutes at 37° C. 10 μL of test compound, vehicle, or control solutions in HBPS were then added to each well and read for 4 min using a Fluo-8 calcium kit and the […]″ instrument (Molecular Devices, Sunnyvale, California). […] J. Neurosci.
Concentration-response data were analysed via the FLIPR Control software that is supplied with the FLIPR System (MDS-AT) and fitted to a Hill equation of the following form: Response=Base+(Max−Base)/1+(xhalf/x)^rate, where: “Base” is the response at low concentrations of test compound; “Max” is the maximum response at high concentrations; “xhalf” is the EC50 (the concentration of test compound producing half-maximal activation); and “rate” is the Hill coefficient. Nonlinear least squares fits were made assuming a simple one-to-one binding model.

[2] = system: zygomatic/forehead skin; assay: Cooling sensation after application to zygomatic/forehead skin; format: in vivo, human; settings: for Sensory Quality / Duration / Onset: 20 mg/mL in distilled water; for Duration: offset minus onset; for Onset: time to reach 2 units of coolness; for Duration of localized cooling and refreshing sensations: forehead skin, 20 mg/mL, 0.08 to 0.15 mL
Description: When certain Dapa compounds are applied to the zygomatic and forehead skin, sensations of coolness/cold are felt and can be graded in intensity [Wei. 1-Di-isopropyl-phosphinoyl-alkanes as topical agents for the treatment of sensory discomfort. US 2015/0164924]. For example, one can rate the sensation as 0, 1, 2, or 3 with: 0 as no change; 1 as slight coolness, or cold; 2 as clear-cut signal of coolness or cold; and 3 as strong cooling or cold. The intervals for recording are 5 to 15 minutes, until at least two successive zeroes are obtained. The onset of drug action is taken as the time to reach 2 units of coolness intensity. The active compounds here, e.g, 1-7 produce cooling with 1 min after application. The duration of Dapa-compound action is defined as the offset time minus the onset time. The offset of drug action is defined here as the time when coolness intensity drops below 2, after previously surpassing 2 units.
Test compounds were applied to the skin of the forehead and zygomatic using cotton gauze (0.4 g, rectangular, 50 mm×60 mm; from CS-being, Daisan Cotton, Japan). The test compounds were used at a concentration of 20 mg/mL in distilled water. From the data shown above, it can be seen that, among these compounds, 1-7 and 1-8 evoked cool/cold on zygomatic/forehead skin.

[3] = system: forehead skin of human subjects; assay: Sebum secretion of forehead skin (Sebumeter); format: in vivo; settings: 20 mg/mL on forehead, FIG. 2
Description: Sebum is an oily substance secreted by the sebaceous gland. These glands, attached to hair follicles, are abundant on the face and scalp. Increased secretion of sebum, for example during teenage years, and associated with androgen stimulation is associated with acne. […] Sebum secretion was measured here using a Sebumeter®, a standardized instrument based on a mat tape brought into contact with the skin, and then grease spot photometry [CK Electronic, Cologne, Germany].
In nine human subjects the baseline secretion of sebum was 188±19 μg/cm^2. […] This pharmacological effect has not been previously observed with Dapa-compounds such as 1-7. This was a new and unexpected observation.

[4] = system: sebocytes; assay: Sebocyte viability, MTT assay; format: cell-based, human; settings: for Sebocyte cell viability as % of controls (FIG. 3): concentrations in mM, 1-8 at 1 mM; for Activity relative to 1-8 in the MTT sebocyte assay: FIG. 4; for Sebocyte cell viability as % of controls (FIG. 4): at 0.10 μM
Description: (§1) The activities of 1-7 and 1-8 on an immortalized sebocyte cell line were examined in the laboratory of Prof Im Myung using methods previously described [Im et al. Epigallocatechin-3-gallate suppresses IGF-I-induced lipogenesis and cytokine expression in SZ95 sebocytes. J. Invest. Dermatol. 132, 2700-8 (2012)]. Proliferation of the sebocytes was measured using the MTT assay, by examination of micrographs of the cells in culture, and ^3H-thymidine incorporation. The effects of the test agents on lipogenesis were further studied by Oil Red O staining and analysis of the lipid composition of the cells. Studies were also conducted on signaling pathways for lipogenesis [PPAR and SREBP-1, Trivedi et al. Peroxisome proliferator-activated receptors increase human sebum production. J. Invest. Dermatol. 126, 2002-9 (2006)].
The MTT assay is a colorimetric assay for cell viability. MTT [3-(4,5-dimethylthiazol-2-yl)-2-5-diphenyltetrazolium bromide], a yellow tetra-azole dye, is reduced to purple formazan in living cells by NADPH-dependent oxidoreductase enzymes. When the number of viable cells decreases the amount of enzymatic activity and purple color decreases and this can be measured with a spectrophotometer.
(§2) 1-7 and 1-8 are sensory cooling agents on the skin and activators [agonists] of the TRPM8 ion channel protein. […] The indicators used for direct comparison were sebocyte viability measured in the MTT assay and then the ^3H-thymidine incorporation assay.

[5] = system: sebocytes; assay: 3H-thymidine incorporation into sebocytes; format: cell-based, human; settings: for activity at 10 µM: Homo sapiens, 3 h, uptake into sebocytes, NS = not significant
Description: as §1, §2

[6] = system: human sebocytes; assay: Inhibition of sebocyte function in cultured human sebocytes (assay not specified); format: cell-based; settings: for Inhibition of sebocyte function: 0.1mM
Description: as §1, §2

[7] = system: sebocytes; assay: IGF-1 stimulated lipogenesis in sebocytes (Oil Red O, thin-layer and gas chromatography of lipids); format: cell-based, human
Description: as §1, with “132, 2700-8 (2012)].” left out, “Dermatol.” for “Dermatol. 126, 2002-9 (2006)].”
J. Invest. Dermatol. […] Oil Red 0 [Sudan Red 5B] is a diazo dye used for staining neutral triglycerides and lipids on cells.

[8] = system: Peroxisome proliferator-activated receptors [PPAR]; assay: Marker of sebum production in sebocytes: PPAR; format: cell-based, human
Description: as §1
(§3) There are intracellular biochemical receptors and markers of sebocyte activation and sebum production. Peroxisome proliferator-activated receptors [PPAR] agonists increase sebum production in isolated sebocytes [Trivedi et al. (2006)]. This class of receptors is reduced after 1-8. Similarly, the […] which is linked to lipogenesis in sebocytes, was reduced by 1-8. These effects were specific to the markers of sebum production, as cellular receptors such as TRPM8 and actin were not affected by 1-8.

[9] = system: sterol-response binding protein [SBEP-1]; assay: Marker of sebum production in sebocytes: SREBP-1; format: cell-based, human
Description: as §1, §3

[10] = system: TRPM8 and actin; assay: Non-sebum cellular markers in sebocytes; format: cell-based, human
Excerpt: as §3

T1 sequence (Q7Z2W7 whole entry): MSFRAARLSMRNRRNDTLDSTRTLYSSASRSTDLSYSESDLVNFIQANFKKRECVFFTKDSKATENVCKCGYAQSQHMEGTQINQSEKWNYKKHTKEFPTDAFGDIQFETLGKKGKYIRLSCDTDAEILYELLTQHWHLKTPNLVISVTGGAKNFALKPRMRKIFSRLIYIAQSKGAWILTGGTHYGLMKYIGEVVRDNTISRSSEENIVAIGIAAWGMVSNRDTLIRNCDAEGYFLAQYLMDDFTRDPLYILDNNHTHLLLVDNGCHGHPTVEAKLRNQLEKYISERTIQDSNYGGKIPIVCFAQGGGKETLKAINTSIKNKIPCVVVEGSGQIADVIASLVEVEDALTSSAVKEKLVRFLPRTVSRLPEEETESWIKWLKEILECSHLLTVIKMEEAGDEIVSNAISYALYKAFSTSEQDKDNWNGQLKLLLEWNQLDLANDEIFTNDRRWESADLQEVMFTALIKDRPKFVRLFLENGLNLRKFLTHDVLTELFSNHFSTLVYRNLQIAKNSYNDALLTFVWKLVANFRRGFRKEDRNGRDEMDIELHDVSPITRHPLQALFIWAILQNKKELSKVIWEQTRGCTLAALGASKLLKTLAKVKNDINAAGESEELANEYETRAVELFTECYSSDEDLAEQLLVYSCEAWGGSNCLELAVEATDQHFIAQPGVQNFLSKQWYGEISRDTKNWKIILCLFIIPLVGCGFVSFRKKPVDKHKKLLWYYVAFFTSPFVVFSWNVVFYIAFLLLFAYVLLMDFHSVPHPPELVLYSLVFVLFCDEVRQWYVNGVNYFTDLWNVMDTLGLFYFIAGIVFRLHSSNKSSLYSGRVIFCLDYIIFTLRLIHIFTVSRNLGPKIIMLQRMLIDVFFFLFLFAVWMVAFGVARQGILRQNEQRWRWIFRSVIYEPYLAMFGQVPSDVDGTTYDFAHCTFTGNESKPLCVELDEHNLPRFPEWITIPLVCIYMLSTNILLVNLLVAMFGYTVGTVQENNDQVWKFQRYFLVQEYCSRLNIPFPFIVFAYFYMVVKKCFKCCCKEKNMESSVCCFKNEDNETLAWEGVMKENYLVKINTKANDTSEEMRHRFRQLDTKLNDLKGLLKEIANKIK

| Compound | Relative Potency to I-menthol [1] | Sensory Quality [2] | Duration [2] [h] | Onset [2] [min] | activity at 10 µM [5] [%] | other results |
| --- | --- | --- | --- | --- | --- | --- |
| CCCCCP(=O)(C(C)C)C(C)C [Code 1-5, 1-diisopropylphosphorylpentane] | 0.7 | dynamic | 0.5 | ~1 | – | – |
| CCCCCCP(=O)(C(C)C)C(C)C [Code 1-6, 1-diisopropylphosphorylhexane] | 1.6 | dynamic | 1.3 | ~1 | – | – |
| CCCCCCCP(=O)(C(C)C)C(C)C [Code 1-7, 1-diisopropylphosphorylheptane] | 5.4 | dynamic-icy | 3.2 | ~1 | ≥ 100 | Onset of cooling after application [2]: ≤ 1 min; Duration of localized cooling and refreshing sensations [2]: several hours; Sebum secretion after topical application [3]: significantly decreased; Sebocyte cell viability as % of controls (FIG. 3) [4]: did not inhibit; Inhibition of sebocyte function [6]: not seen |
| CCCCCCCCP(=O)(C(C)C)C(C)C [Code 1-8, 1-diisopropylphosphoryloctane] | 5.4 | cold-icy | 4.0 | ~1 | ≥ 78 | Duration of localized cooling and refreshing sensations [2]: several hours; Photomicrographs of sebocyte cultures ([4]; 0.1mM): patchy empty spaces; Sebocyte cell viability as % of controls (FIG. 3) [4]: strongly inhibited; IGF-1 induced increase of lipids in cells (Oil Red O photomicrograph) ([7]; IGF-1 50 ng/mL, 0.1mM): inhibited; Squalene and wax esters (thin-layer chromatography and gas-chromatography) ([7]; IGF-1 stimulated sebocytes): selectively decreased; PPAR level [8]: reduced; SBEP-1 level [9]: reduced; TRPM8 and actin levels [10]: not affected; Inhibition of sebocyte function [6]: potent inhibitor |
| CCCCCCCCCP(=O)(C(C)C)C(C)C [Code 1-9, 1-diisopropylphosphorylnonane] | 4.0 | cool | 2.0 | ~2 | ≥ 85 | Activity on sebocyte viability (structure-activity summary of Table 6) [4]: active |
| CCCCCCCCCCP(=O)(C(C)C)C(C)C [Code 1-10, 1-diisopropylphosphoryldecane] | – | – | – | – | ≥ 100 | Activity on TRPM8 [1]: low potency; Activity relative to 1-8 in the MTT sebocyte assay [4]: 10,000 x; Sebocyte cell viability as % of controls (FIG. 4) [4]: strongly inhibited; Levels / production of squalene (thin layer chromatography, FIG. 5) ([7]; IGF-1 stimulated sebocytes): lowers |
| CCCCCCCCCCCCP(=O)(C(C)C)C(C)C [Code 1-12, 1-diisopropylphosphoryldodecane] | – | – | – | – | ~40 | Activity on TRPM8 [1]: low potency; also recorded: very low activity; Activity relative to 1-8 in the MTT sebocyte assay [4]: 10,000 x; Sebocyte cell viability as % of controls (FIG. 4) [4]: strongly inhibited; Inhibition of 3H-thymidine incorporation into sebocytes [5]: clearly inhibited; Levels / production of squalene (thin layer chromatography, FIG. 5) ([7]; IGF-1 stimulated sebocytes): effective; also recorded: lowers; Concentration at which fully effective ([6]; sebocytes in culture): 0.01 µM |
| CCCCP(=O)(C(C)CC)C(C)CC (stereo not shown) [Code 2-4, 1-disec-butylphosphorylbutane] | 0.3 | cool | 0.3 | ~1 | – | – |
| CCCCCP(=O)(C(C)CC)C(C)CC (stereo not shown) [Code 2-5, 1-disec-butylphosphorylpentane] | 2.2 | cool | 1.1 | ~1 | ≥ 98 | – |
| CCCCCCP(=O)(C(C)CC)C(C)CC (stereo not shown) [Code 2-6, 1-disec-butylphosphorylhexane] | 4.7 | cold | 1.5 | ~2 | ≥ 100 | Activity on sebocyte viability (structure-activity summary of Table 6) [4]: absence of activities |
| CCCCCCCP(=O)(C(C)CC)C(C)CC (stereo not shown) [Code 2-7, 1-disec-butylphosphorylheptane] | 3.4 | cold | 2.4 | ~2 | ≥ 85 | Activity on sebocyte viability (structure-activity summary of Table 6) [4]: absence of activities |
| CCCCCCCCP(=O)(C(C)CC)C(C)CC (stereo not shown) [Code 2-8, 1-disec-butylphosphoryloctane] | 2.9 | cold | 5.6 | 5 | ≥ 90 | Activity on sebocyte viability (structure-activity summary of Table 6) [4]: more activity than 2-6 or 2-7 |
| CC1=C(/C=C/C(C)=C/C=C/C(C)=C\C(=O)O)C(C)(C)CCC1 [cis-retinoic acid, reference compound] | – | – | – | – | – | IGF-1 increased lipids, gel staining (FIG. 5) ([7]; IGF-1 stimulated sebocytes): inhibited |
| CC1=C(/C=C/C(C)=C/C=C/C(C)=C/C(=O)O)C(C)(C)CCC1 [trans-retinoic acid, reference compound] | – | – | – | – | – | IGF-1 increased lipids, gel staining (FIG. 5) ([7]; IGF-1 stimulated sebocytes): inhibited |
